ChEMBL document CHEMBL5370584, “Reprogramming Energy Metabolism with Synthesized PDK Inhibitors Based on Dichloroacetate Derivatives and Targeted Delivery Systems for Enhanced Cancer Therapy” (J Med Chem, 2023)
pEC50, pIC50: −log10 of the molar value. The source made the active and inactive calls. The rule behind the calls is not given here.

How the values were obtained:
[1] = tested on: MOLM-13; test: Antiproliferative activity against human MOLM-13 cells assessed as inhibition of cell growth incubated for 24 hrs by MTT assay; format: functional, cell-based; conditions: MOLM-13, 24 h
[2] = tested on: NB-4; test: Antiproliferative activity against human NB4 cells assessed as inhibition of cell growth incubated for 24 hrs by MTT assay; format: functional, cell-based; conditions: NB-4, 24 h
[3] = tested on: 4T1; test: Antiproliferative activity against mouse 4T1 cells assessed as inhibition of cell growth incubated for 24 hrs by MTT assay; format: functional, cell-based; conditions: 4T1, 24 h
[4] = tested on: MCF7; test: Antiproliferative activity against human MCF7 cells assessed as inhibition of cell growth incubated for 24 hrs by MTT assay; format: functional, cell-based; conditions: MCF7, 24 h
[5] = tested on: HeLa; test: Antiproliferative activity against human HeLa cells assessed as inhibition of cell growth incubated for 24 hrs by MTT assay; format: functional, cell-based
[6] = (§1) Antiproliferative activity against African green monkey COS7 cells assessed as inhibition of cell growth incubated for 24 hrs by MTT assay; format: toxicity, cell-based, Chlorocebus aethiops, COS-7; conditions: African green monkey (Chlorocebus aethiops), COS-7 cells
[7] = molecular target: [Pyruvate dehydrogenase (acetyl-transferring)] kinase isozyme 1, mitochondrial (Homo sapiens, UniProt Q15118); test: Inhibition of PDK1 (unknown origin) incubated for 30 mins in presence of ATP by kinase glo luminescent kinase assay
Chain of [Pyruvate dehydrogenase (acetyl-transferring)] kinase isozyme 1, mitochondrial (Q15118 whole entry): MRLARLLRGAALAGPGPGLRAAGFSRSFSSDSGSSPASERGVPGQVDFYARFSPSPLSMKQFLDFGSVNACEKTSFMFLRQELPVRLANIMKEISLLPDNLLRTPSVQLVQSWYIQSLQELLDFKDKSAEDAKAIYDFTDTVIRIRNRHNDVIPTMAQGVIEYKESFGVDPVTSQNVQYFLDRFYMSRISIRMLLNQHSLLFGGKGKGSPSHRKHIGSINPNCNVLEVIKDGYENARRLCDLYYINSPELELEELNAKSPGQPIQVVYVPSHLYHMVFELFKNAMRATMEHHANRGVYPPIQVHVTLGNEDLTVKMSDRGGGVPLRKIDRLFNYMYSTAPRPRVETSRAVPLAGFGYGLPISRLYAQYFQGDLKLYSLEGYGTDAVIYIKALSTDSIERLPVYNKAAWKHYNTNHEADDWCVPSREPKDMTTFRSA

[8] = Inhibition of PDK (unknown origin); set-up: species or system Homo sapiens
[9] = Inhibition of PDK (unknown origin) incubated for 10 mins in presence of ATP; set-up: species or system Homo sapiens
[10] = molecular target: [Pyruvate dehydrogenase (acetyl-transferring)] kinase isozyme 1, mitochondrial (Mus musculus) (UniProt Q8BFP9); test: Inhibition of PDK1 transcription in mouse 4T1 cells at 4 uM incubated for 24 hrs by qPCR analysis; format: cell-based
Chain of [Pyruvate dehydrogenase (acetyl-transferring)] kinase isozyme 1, mitochondrial (Mus musculus) (Q8BFP9 whole entry): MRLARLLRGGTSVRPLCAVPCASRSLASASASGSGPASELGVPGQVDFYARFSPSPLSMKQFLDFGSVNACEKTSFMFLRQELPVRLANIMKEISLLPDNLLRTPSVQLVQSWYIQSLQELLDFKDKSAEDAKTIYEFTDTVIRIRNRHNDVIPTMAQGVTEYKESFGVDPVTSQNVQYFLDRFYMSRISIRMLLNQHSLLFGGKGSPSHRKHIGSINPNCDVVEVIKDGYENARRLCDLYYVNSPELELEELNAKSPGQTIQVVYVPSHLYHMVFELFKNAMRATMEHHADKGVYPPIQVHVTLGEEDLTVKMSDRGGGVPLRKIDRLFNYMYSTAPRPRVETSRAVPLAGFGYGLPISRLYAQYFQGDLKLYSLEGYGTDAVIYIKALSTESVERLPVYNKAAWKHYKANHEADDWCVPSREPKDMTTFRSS

[11] = molecular target: [Pyruvate dehydrogenase (acetyl-transferring)] kinase isozyme 2, mitochondrial (Mus musculus) (UniProt Q9JK42); test: Inhibition of PDK2 transcription in mouse 4T1 cells at 4 uM incubated for 24 hrs by qPCR analysis; format: cell-based
[12] = molecular target: [Pyruvate dehydrogenase (acetyl-transferring)] kinase isozyme 3, mitochondrial (Mus musculus) (UniProt Q922H2); test: Inhibition of PDK3 transcription in mouse 4T1 cells at 4 uM incubated for 24 hrs by qPCR analysis; format: cell-based
Chain of [Pyruvate dehydrogenase (acetyl-transferring)] kinase isozyme 3, mitochondrial (Mus musculus) (Q922H2 whole entry): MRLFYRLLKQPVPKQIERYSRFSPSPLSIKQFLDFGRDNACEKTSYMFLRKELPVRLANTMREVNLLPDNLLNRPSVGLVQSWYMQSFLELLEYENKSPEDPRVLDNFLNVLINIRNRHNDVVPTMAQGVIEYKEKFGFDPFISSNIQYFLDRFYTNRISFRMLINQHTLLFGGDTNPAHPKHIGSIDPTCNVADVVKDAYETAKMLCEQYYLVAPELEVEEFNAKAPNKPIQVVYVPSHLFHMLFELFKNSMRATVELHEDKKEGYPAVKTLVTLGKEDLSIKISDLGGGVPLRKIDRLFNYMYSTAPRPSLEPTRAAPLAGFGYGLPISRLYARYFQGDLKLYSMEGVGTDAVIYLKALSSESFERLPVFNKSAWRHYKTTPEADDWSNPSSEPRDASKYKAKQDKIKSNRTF

[13] = molecular target: [Pyruvate dehydrogenase (acetyl-transferring)] kinase isozyme 4, mitochondrial (Mus musculus) (UniProt O70571); test: Inhibition of PDK4 transcription in mouse 4T1 cells at 4 uM incubated for 24 hrs by qPCR analysis; format: cell-based
Chain of [Pyruvate dehydrogenase (acetyl-transferring)] kinase isozyme 4, mitochondrial (Mus musculus) (O70571 whole entry): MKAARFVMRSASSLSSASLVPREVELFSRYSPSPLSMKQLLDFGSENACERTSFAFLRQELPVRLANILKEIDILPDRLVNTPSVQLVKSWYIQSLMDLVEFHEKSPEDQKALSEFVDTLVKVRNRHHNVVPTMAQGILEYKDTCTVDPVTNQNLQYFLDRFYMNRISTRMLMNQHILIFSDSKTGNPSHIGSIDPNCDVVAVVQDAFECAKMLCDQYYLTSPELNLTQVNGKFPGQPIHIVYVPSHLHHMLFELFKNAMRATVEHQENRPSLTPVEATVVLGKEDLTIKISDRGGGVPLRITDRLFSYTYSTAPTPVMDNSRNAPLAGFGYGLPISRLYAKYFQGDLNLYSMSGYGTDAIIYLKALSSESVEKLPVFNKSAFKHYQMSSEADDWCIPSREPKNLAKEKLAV

[14] = tested on: 4T1; test: Inhibition of PDK1 expression in mouse 4T1 cells at 4 uM incubated for 24 hrs by Western blot analysis; format: functional, cell-based
[15] = tested on: 4T1; test: Inhibition of PDK4 expression in mouse 4T1 cells at 4 uM incubated for 24 hrs by Western blot analysis; format: functional, cell-based
[16] = tested on: 4T1; test: Inhibition of glycolysis in mouse 4T1 cell lysates assessed as reduction in extracellular acidification rate at 2 uM measured after 6 hrs; format: functional, cell-based
[17] = tested on: COS-7; test: as §1; format: toxicity, cell-based, Chlorocebus aethiops; conditions: cos-7
[18] = tested on: 4T1; test: Inhibition of glycolysis in mouse 4T1 cell lysates assessed as reduction in extracellular acidification rate at 20 mM measured after 6 hrs; format: functional, cell-based
[19] = tested on: Prostate cell; test: Antiproliferative activity against human prostate cell assessed as inhibition of cell viability measured after 72 hrs by MTT assay; format: functional, cell-based
[20] = tested on: Breast cancer cell line; test: Antiproliferative activity against human Breast cancer cell line assessed as inhibition of cell viability measured after 72 hrs by MTT assay; format: functional, cell-based

Compound	pIC50 [1]	pIC50 [2]	pIC50 [3]	pIC50 [4]	pIC50 [5]	IC50 at 24 h [6] [µM]	pEC50 [7]	other results
O=C(CCCCCCCNC(=O)C(Cl)Cl)Nc1ccc([As]2SCCCS2)cc1	5.91	5.96	5.76	5.72	5.72	9.62	6.21	–
O=C(CCNC(=O)C(Cl)Cl)Nc1ccc([As]2SCCCS2)cc1	5.87	5.91	5.57	5.49	5.50	6.27	5.72	–
O=C(CCCCCNC(=O)C(Cl)Cl)Nc1ccccc1[As]1SCCCS1	5.79	5.70	5.67	5.68	5.43	6.13	5.49	–
O=C(Nc1ccccc1[As]1SCCCS1)C(Cl)Cl	6.32	6.28	5.96	6.11	6.57	1.87	5.02	–
O=C(CCCNC(=O)C(Cl)Cl)Nc1ccc([As]2SCCCS2)cc1	5.87	5.90	5.55	5.17	5.45	6.12	6.00	–
C[C@@H]1CN(C(=O)[C@@](C)(O)C(F)(F)F)[C@@H](C)CN1C(=O)c1ccc(C#N)cc1	–	–	–	–	–	–	–	pEC50 [8]: 7.80
O=S(=O)(c1ccc(O)cc1O)N1Cc2cc(O)cc(O)c2C1	–	–	–	–	–	–	–	pEC50 [9]: 6.10
O=C(Nc1ccc([As]2SCCCS2)cc1)C(Cl)Cl	6.04	6.02	6.01	5.75	6.16	3.74	5.33	inhibition [10]: inactive; inhibition [11]: inactive; inhibition [12]: inactive; inhibition [13]: inactive; inhibition [14]: inactive; inhibition [15]: inactive; inhibition [16]: inactive
O=C(CCCCCCCCCCCNC(=O)C(Cl)Cl)Nc1ccccc1[As]1SCCCS1	5.87	6.04	5.53	5.74	5.78	3	5.80	–
COc1ccc(-c2c(-c3ccc(O)cc3O)n[nH]c2C)cc1	–	–	–	–	–	–	–	pEC50 [9]: 3.19
O=C(CCCCNC(=O)C(Cl)Cl)Nc1ccc([As]2SCCCS2)cc1	5.91	5.87	5.56	5.03	5.49	4.6	6.03	–
O=C(O)C(Cl)Cl [DICHLOROACETIC ACID]	1.66	1.70	1.52	1.46	1.60	–	–	pIC50 [17]: 1.40
O=C(CCCCCCCNC(=O)C(Cl)Cl)Nc1ccccc1[As]1SCCCS1	5.54	5.76	5.53	5.55	5.68	4.8	5.72	–
O=C(O)C(Cl)Cl	–	–	–	–	–	–	–	inhibition [18]: inactive
O=C([O-])C(Cl)Cl.[Na+] [SODIUM DICHLOROACETATE]	–	–	–	–	–	–	–	pEC50 [9]: 3.74
O=C(CCNC(=O)C(Cl)Cl)Nc1ccccc1[As]1SCCCS1	5.77	5.79	5.49	5.45	5.60	5.23	5.59	–
CN(C)C(=O)c1ccc(S(=O)(=O)c2ccc(NC(=O)[C@@](C)(O)C(F)(F)F)c(Cl)c2)cc1	–	–	–	–	–	–	–	pEC50 [9]: 7.06
C[C@@H]1C[C@H]2O[C@@H]2/C=C\C=C\C(=O)Cc2c(Cl)c(O)cc(O)c2C(=O)O1 [RADICICOL]	–	–	–	–	–	–	–	pEC50 [9]: 2.96
O=C(CCCNC(=O)C(Cl)Cl)Nc1ccccc1[As]1SCCCS1	5.71	5.68	3.48	5.55	5.48	6.06	5.54	–
O=C(CCCCC[P+](c1ccccc1)(c1ccccc1)c1ccccc1)NC(COC(=O)C(Cl)Cl)(COC(=O)C(Cl)Cl)COC(=O)C(Cl)Cl	–	–	–	–	–	–	–	pIC50 [19]: 4.77
CC(C)c1ccc(COc2ccc(CC(=O)NCCN)cc2Cl)cc1	–	–	–	–	–	–	–	pEC50 [8]: 5.70
O=C(CCCCCCNC(=O)C(Cl)Cl)Nc1ccc([As]2SCCCS2)cc1	5.89	5.94	5.68	5.71	5.60	9.66	6.72	–
CC1(C)CC[C@]2(C(=O)O)CC[C@]3(C)C(=CC[C@@H]4[C@@]5(C)CC[C@H](O[C@@H]6O[C@H](CO[C@@H]7OC[C@H](O)[C@H](O)[C@H]7O)[C@@H](O)[C@H](O)[C@H]6NC(=O)C(Cl)Cl)C(C)(C)[C@@H]5CC[C@]43C)[C@@H]2C1	–	–	–	–	–	–	–	pIC50 [20]: 6.37
O=C(CCCCNC(=O)C(Cl)Cl)Nc1ccccc1[As]1SCCCS1	5.75	5.77	5.43	5.27	5.33	5.58	6.19	–
O=C(CCCCCCCCCCCNC(=O)C(Cl)Cl)Nc1ccc([As]2SCCCS2)cc1	6.10	6.15	5.85	5.82	6.03	1.15	5.89	–
O=C(CCCCCCNC(=O)C(Cl)Cl)Nc1ccccc1[As]1SCCCS1	5.70	5.79	5.58	5.53	5.71	8.07	5.92	–
